Assay: gradient 5% acetonitrile 3 min, to 50% in 2 min, to 85% in 15 min, held 3 min, 100 µL/min
Details: column: Zorbax Extend-C18 2.1 x 50 mm; eluents: water / acetonitrile, 0.1% formic acid
Summary of the method: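 Data were gathered over 3 months by HPLC coupled to a quadrupole time-of-flight mass spectrometer, operated in positive and negative ionization mode. Mixtures of ~100 pure standards ran on a Zorbax Extend-C18 column (2.1 × 50 mm, 1.8 μm) at 100 μL/min, with water and acetonitrile each containing 0.1% formic acid and dead and dwell volumes of 40 μL and 900 μL. Retention time was read from adduct peaks picked by computer and checked manually.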

In the case of `CCn1cc(CCN2CCN(C(=O)c3cccs3)CC2)c2cccnc21`, the RP-LC retention time is reported as 589 s.
Work on `CCSc1nc2ccc(NS(=O)(=O)c3cc(F)ccc3F)cc2s1` yielded an RP-LC retention time of 1020 s.
Compound `Cc1cnc(CC2CCN(S(=O)(=O)c3cn(C)cn3)C2)n1Cc1ccccc1` (stereo not drawn) has an RP-LC retention time of 590 s.
For `O=C(O)C1CCN(c2nc3ccc(-c4cccnc4)nc3s2)CC1`, the RP-LC retention time was 610 s.
With `O=C(Nc1ccc2cn[nH]c2c1)c1ccc2nc[nH]c2c1` the RP-LC retention time was 541 s.
Compound `O=C(CSc1ccc(N2CCOCC2)nn1)Nc1ccc(Cl)cc1` has an RP-LC retention time of 725 s.
For `Cn1nc(C(=O)N2CCCCC2)c2c1CCN(C(=O)Nc1ccccc1Br)C2`, the RP-LC retention time was 764 s.
With `CC(C)CCNC(=O)c1nc(Nc2ccc(F)cc2)c2ccccc2n1` the RP-LC retention time was 851 s.
`O=C(COc1ccc(Cl)cc1)N1CCN(c2cc(-c3cccs3)[nH]n2)CC1` showed an RP-LC retention time of 864 s.
Compound `CN(C)C(=O)c1cn(C2CN(C(=O)CCc3c[nH]c4ccccc34)C2)nn1` has an RP-LC retention time of 652 s.
In the case of `O=C(c1ccc(Cl)cc1Cl)N1CC(c2nc(C3CC3)no2)C1`, the RP-LC retention time is reported as 818 s.
Compound `O=C(NCc1csc(C2CCN(C(=O)c3ccc(F)c(F)c3)CC2)n1)C1CC1` has an RP-LC retention time of 705 s.
`CCCC(=O)Nc1ccc2c(c1)CN(C(=O)CC1CCCC1)C(C(=O)N(C)C)C2` (stereo not drawn) gave an RP-LC retention time of 716 s.
Compound `Cc1nc(-c2cccnc2)nc2c1CCC(=O)N2Cc1ccco1` has an RP-LC retention time of 681 s.
With `CC1(C)CC(=O)C(CC(=O)c2ccccc2)=C(NN=C(N)N)C1` the RP-LC retention time was 666 s.
In the case of `COc1ccc(N2CCN(C(c3cccs3)C(C)NC(=O)C(=O)N3CCCC3)CC2)cc1` (stereo not drawn), the RP-LC retention time is reported as 670 s.
For `O=C(CN1CCc2ccccc2C1C(=O)N1CCCCC1)NCc1ccc(F)cc1Cl` (stereo not drawn), the RP-LC retention time was 918 s.
Compound `COc1ccc(C(=O)Nc2nc(-c3ccc4c(c3)N(C)C(=O)C(C)O4)cs2)cc1OC` (stereo not drawn) has an RP-LC retention time of 932 s.
In the case of `CCc1ccc(S(=O)(=O)c2cnc(N3CCN(c4cccc(Cl)c4)CC3)nc2N)cc1`, the RP-LC retention time is reported as 1270 s.
`Nc1nc2c(C(F)(F)F)cccc2s1` gave an RP-LC retention time of 720 s.
`O=C(c1c(F)cccc1F)N1CCC2(CC1)N=C(c1ccc(Cl)cc1)NO2` showed an RP-LC retention time of 847 s.
With `O=C(c1ccc(-c2cncnc2)nc1)N1CCN(c2ccccc2Cl)CC1` the RP-LC retention time was 829 s.
With `O=C(Nc1ccc2ncnc(N3CCCCC3)c2c1)c1cncc(Br)c1` the RP-LC retention time was 665 s.
With `Fc1cccc(CNc2cc(-n3cccn3)ncn2)c1` the RP-LC retention time was 854 s.
With `CC(C)(C)c1noc(-c2ccc(-n3cnc(C(=O)NCc4ccc(F)cc4)c3)nc2)n1` the RP-LC retention time was 1330 s.
`CCc1nc(-c2ccc(S(=O)(=O)N3CCC(C(=O)NCc4cccs4)CC3)cc2)no1` gave an RP-LC retention time of 917 s.
For `OCc1nnn(-c2ccccc2)c1CO`, the RP-LC retention time was 642 s.
`CC1(C(=O)NCc2ccccc2)CCN(S(=O)(=O)c2ccc(Br)cc2)CC1` showed an RP-LC retention time of 961 s.
In the case of `CCOC(=O)C1CCN(S(=O)(=O)c2cc(-c3nc(C(C)(C)C)cs3)cs2)CC1`, the RP-LC retention time is reported as 1310 s.
In the case of `COc1ccc(-c2cc3c4nnc(CCC(=O)NCc5ccccc5C(F)(F)F)n4ccn3n2)cc1`, the RP-LC retention time is reported as 822 s.
`Cc1ccc(-c2csc(Cc3nc(-c4ccc(F)cc4)no3)n2)cc1` gave an RP-LC retention time of 1310 s.
In the case of `CNc1ncnc2c1cnn2-c1ccc(F)cc1`, the RP-LC retention time is reported as 657 s.
Compound `Cc1ccc(-n2c(C)c(C)c3c(=O)n(CC(=O)NC4CCCC4)cnc32)cc1` has an RP-LC retention time of 834 s.
With `c1ccc(Cn2cnnc2C2CCCCN2Cc2ccoc2)cc1` (stereo not drawn) the RP-LC retention time was 601 s.
In the case of `O=C(NC1CCCCCC1)C1CCCN(S(=O)(=O)c2c[nH]c(C(=O)N3CCCCCC3)c2)C1` (stereo not drawn), the RP-LC retention time is reported as 926 s.
With `CCCCn1c(SCc2nc(-c3ccc(OCC)cc3)no2)nc2cc3c(cc2c1=O)OCO3` the RP-LC retention time was 1390 s.
Compound `COC(=O)CC(=O)Nc1cc2c(cc1N1CCCCC1)n(C)c(=O)n2C` has an RP-LC retention time of 641 s.
Work on `c1cc2c(cc1OCc1cn(CC3CCCNC3)nn1)CCC2` (stereo not drawn) yielded an RP-LC retention time of 587 s.
With `CCCN1C(=O)CCc2cc(NS(=O)(=O)c3ccc(CC)cc3)ccc21` the RP-LC retention time was 907 s.
`CC(=O)c1cccc(S(=O)(=O)Nc2ccc(CC(=O)N(C)C)cc2)c1` gave an RP-LC retention time of 651 s.
For `COC(=O)Cn1c(C)cc(=O)n2nc(-c3ccccc3Cl)nc12`, the RP-LC retention time was 729 s.
Compound `COc1ccc(NC(=O)Cn2c(N3CCOCC3)nc(C)cc2=O)cc1` has an RP-LC retention time of 609 s.
Work on `Cc1csc(-c2cc(S(=O)(=O)N3CCN(C4CCCCC4)CC3)c(C)s2)n1` yielded an RP-LC retention time of 714 s.
Compound `COc1cc(C(=O)NCC(c2cccs2)N2CCOCC2)cc(OC)c1OC` (stereo not drawn) has an RP-LC retention time of 607 s.
With `CC(C(=O)NCCCN1CCOCC1)n1c2ccccc2c2cnn(C)c(=O)c21` (stereo not drawn) the RP-LC retention time was 599 s.
For `COCC(C)(O)CNC(=O)c1cccnc1SC` (stereo not drawn), the RP-LC retention time was 577 s.
Compound `CCc1nn2c(CNS(=O)(=O)Cc3cc(F)cc(F)c3)c(-c3ccccc3)nc2s1` has an RP-LC retention time of 1010 s.
`COc1ccc(CN2CCc3nc(N4CCN(c5ccccc5F)CC4)ncc3C2)cc1` showed an RP-LC retention time of 773 s.
`COc1ccc(CN(Cc2ccccc2)Cc2cc(=O)n3ccccc3n2)cc1` showed an RP-LC retention time of 666 s.
In the case of `O=C1CN(C(=O)Cc2ccc(Cl)cc2)C2(CCCC2)CN1`, the RP-LC retention time is reported as 761 s.
Work on `COc1cc(C)c(Cl)cc1S(=O)(=O)Nc1ccc(-c2cn3ccc(C)nc3n2)cc1` yielded an RP-LC retention time of 700 s.
With `CCCCn1c(CN2CCOCC2)nc2cc(NC(=O)C(C)C)ccc21` the RP-LC retention time was 648 s.
Compound `CC1=C(c2ccccc2)S(=O)(=O)N=C1N1CCCN(C(=O)c2ccc(Cl)s2)CC1` has an RP-LC retention time of 896 s.
In the case of `Cc1ccc(Cl)cc1N1CCN(C(=O)c2[nH]c(C)c(S(=O)(=O)N3CCOCC3)c2C)CC1`, the RP-LC retention time is reported as 984 s.
In the case of `COc1ccccc1NC1=NS(=O)(=O)c2ccccc21`, the RP-LC retention time is reported as 769 s.
In the case of `O=C1COc2ccccc2N1Cc1nc(-c2ccc(F)cc2)no1`, the RP-LC retention time is reported as 984 s.
For `CS(=O)(=O)Nc1ccc(C2(C(=O)NCc3ccc(F)cc3Cl)CCCCC2)cc1`, the RP-LC retention time was 979 s.
Work on `CN(C)CCC(c1ccccc1)c1ccccn1` (stereo not drawn) yielded an RP-LC retention time of 580 s.
Work on `COc1ccc(NC(=O)N2CC(N(C3CCOCC3)S(C)(=O)=O)C2)cc1F` yielded an RP-LC retention time of 685 s.
`COCCNC(=O)C1CCN(c2nc3ccc(-c4cccc(OC)c4)nc3s2)CC1` showed an RP-LC retention time of 804 s.
Work on `Cc1ccc(Cl)c(NC(=O)c2[nH]c3cc(C)sc3c2CN(C)C)c1` yielded an RP-LC retention time of 688 s.
`Cc1ccc(S(=O)(=O)N2CCc3nc[nH]c3C2)cc1C` gave an RP-LC retention time of 611 s.
`CCc1nc2cc(N3CCCC(C(=O)O)C3)cnc2nc1CC` (stereo not drawn) showed an RP-LC retention time of 693 s.
Work on `CCOC(=O)c1nc(NC(CC)CN(C)Cc2ccccc2)c2c(C)noc2n1` (stereo not drawn) yielded an RP-LC retention time of 672 s.
For `CC(=O)c1ccc(S(=O)(=O)N(Cc2cccs2)Cc2cccn2C)cc1`, the RP-LC retention time was 983 s.
For `O=C(C1CCN(S(=O)(=O)c2ccc(-c3noc(COc4ccccc4)n3)cc2)CC1)N1CCCC1`, the RP-LC retention time was 961 s.
`Cc1ccc2nc(N3CCN(Cc4ccccc4)CC3)c(-c3noc(C)n3)cc2c1` gave an RP-LC retention time of 686 s.
In the case of `CCc1cccc(NC(=O)c2cc3sccc3n2Cc2ccc(F)cc2)c1`, the RP-LC retention time is reported as 1260 s.
